Reference: patent US9931308B2, “Compositions and methods using P-anisaldehyde” (NESTEC S.A., priority 2013, dated 2018)
Read-outs that look alike come from different tables or passages of the source.

How the values were obtained:
[1] = test system: mice; assay: body weight gain in mice with chronic ingestion, high fat diet (FIG. 3); type: in vivo; conditions: mice chronically fed high fat diet containing 0.2 wt % compound vs same diet without
[2] = test system: mice; assay: insulin sensitivity in mice with chronic ingestion, high fat diet (FIG. 4); type: in vivo; conditions: mice chronically fed high fat diet containing 0.2 wt % compound vs same diet without
[3] = test system: mice; assay: short term food intake after a single ingestion in mice (FIG. 5); type: in vivo; conditions: single dose vs sham gavage
[4] = test system: mice; assay: gastric emptying after a single ingestion in mice (FIG. 6); type: in vivo; conditions: single dose vs sham gavage
[5] = molecular target: T1, TRPA1 (Homo sapiens, UniProt O75762); conditions: known TRPA1 agonist; read-out: EC50 TRPA1 activation; cited from earlier work
[6] = molecular target: T1, TRPA1; assay: in vitro activation of TRPA1 in cells expressing TRP channels (FIG. 7); type: cell-based; conditions: FIG. 7, circles; read-out: EC-50 TRPA1 activation
[7] = molecular target: T2, TRPV1 (Homo sapiens, UniProt Q8NER1); assay: in vitro activation of TRPV1 in cells expressing TRP channels (FIG. 7); type: cell-based; conditions: FIG. 7, squares; read-out: EC 50 TRPV1 activation
T2 construct: expressed in transfected cells; an “empty” cell control implies recombinant expression

[8] = test system: "empty" cells; assay: in vitro activation on "empty" cells, control (FIG. 7); type: cell-based; conditions: FIG. 7, downward pointing triangles
[9] = molecular target: TRPM8 (Homo sapiens, UniProt Q7Z2W7); assay: in vitro activation of hTRPM8 in cells expressing TRP channels (FIG. 7); type: cell-based; set-up: expressed in transfected cells; an “empty” cell control implies recombinant expression; conditions: FIG. 7, upward pointing triangles
Sequence of TRPM8 (Q7Z2W7 whole entry): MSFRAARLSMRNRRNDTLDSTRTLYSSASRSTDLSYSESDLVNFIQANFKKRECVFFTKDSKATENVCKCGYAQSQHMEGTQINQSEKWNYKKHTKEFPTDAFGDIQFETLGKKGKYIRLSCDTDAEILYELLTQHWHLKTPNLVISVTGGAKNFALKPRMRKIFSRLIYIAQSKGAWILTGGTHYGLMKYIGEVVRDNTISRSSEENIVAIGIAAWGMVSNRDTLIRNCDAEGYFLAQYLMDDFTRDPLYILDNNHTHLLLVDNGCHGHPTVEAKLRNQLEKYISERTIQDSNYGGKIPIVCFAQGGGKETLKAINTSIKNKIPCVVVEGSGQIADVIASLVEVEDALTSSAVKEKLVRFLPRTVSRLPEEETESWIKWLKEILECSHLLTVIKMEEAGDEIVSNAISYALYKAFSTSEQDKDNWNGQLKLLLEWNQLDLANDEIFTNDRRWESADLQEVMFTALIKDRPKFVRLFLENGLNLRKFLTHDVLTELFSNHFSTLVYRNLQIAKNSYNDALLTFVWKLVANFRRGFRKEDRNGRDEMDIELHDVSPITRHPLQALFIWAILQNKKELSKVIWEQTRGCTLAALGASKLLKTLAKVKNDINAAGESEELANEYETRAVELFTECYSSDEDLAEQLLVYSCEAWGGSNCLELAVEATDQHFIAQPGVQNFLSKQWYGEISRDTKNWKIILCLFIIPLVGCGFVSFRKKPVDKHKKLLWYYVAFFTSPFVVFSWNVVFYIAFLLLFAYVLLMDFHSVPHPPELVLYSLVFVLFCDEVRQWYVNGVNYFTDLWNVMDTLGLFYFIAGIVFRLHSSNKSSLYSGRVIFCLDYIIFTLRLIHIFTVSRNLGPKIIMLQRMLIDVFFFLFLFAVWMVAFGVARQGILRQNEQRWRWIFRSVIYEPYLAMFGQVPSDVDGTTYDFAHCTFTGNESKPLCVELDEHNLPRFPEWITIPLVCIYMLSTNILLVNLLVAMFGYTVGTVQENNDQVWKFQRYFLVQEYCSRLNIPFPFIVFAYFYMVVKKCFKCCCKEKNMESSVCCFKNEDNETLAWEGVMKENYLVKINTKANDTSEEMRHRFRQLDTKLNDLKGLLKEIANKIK

T1 sequence (O75762 whole entry, species assumed): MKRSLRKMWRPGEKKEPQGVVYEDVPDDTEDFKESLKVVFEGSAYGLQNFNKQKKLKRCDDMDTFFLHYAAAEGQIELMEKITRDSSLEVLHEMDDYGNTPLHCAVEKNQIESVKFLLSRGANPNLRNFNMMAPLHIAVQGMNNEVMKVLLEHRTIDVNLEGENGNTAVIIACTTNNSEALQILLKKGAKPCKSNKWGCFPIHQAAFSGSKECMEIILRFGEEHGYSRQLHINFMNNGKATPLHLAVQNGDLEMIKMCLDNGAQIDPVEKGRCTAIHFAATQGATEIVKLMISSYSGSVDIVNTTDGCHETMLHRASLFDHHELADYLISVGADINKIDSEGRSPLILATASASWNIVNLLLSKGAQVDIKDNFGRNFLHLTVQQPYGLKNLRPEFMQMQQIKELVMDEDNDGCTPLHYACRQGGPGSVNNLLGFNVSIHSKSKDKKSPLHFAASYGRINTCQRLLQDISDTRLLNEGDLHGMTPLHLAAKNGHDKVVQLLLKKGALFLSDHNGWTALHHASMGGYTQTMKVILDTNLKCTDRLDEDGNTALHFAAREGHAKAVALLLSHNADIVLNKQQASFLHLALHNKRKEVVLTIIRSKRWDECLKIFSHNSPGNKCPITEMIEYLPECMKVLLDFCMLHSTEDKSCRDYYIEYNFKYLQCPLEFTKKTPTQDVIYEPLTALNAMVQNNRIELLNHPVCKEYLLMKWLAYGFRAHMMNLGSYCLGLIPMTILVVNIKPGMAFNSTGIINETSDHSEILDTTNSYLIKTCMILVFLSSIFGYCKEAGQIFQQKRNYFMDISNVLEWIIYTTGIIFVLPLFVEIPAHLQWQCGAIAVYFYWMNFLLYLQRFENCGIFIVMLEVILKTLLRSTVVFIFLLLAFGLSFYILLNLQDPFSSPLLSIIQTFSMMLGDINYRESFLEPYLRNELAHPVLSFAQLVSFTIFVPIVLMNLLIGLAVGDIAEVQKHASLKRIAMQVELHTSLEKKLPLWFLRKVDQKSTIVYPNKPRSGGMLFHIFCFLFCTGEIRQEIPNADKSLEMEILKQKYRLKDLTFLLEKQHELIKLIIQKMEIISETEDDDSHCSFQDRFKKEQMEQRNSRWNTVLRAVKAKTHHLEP
T2 sequence (Q8NER1 whole entry, species assumed): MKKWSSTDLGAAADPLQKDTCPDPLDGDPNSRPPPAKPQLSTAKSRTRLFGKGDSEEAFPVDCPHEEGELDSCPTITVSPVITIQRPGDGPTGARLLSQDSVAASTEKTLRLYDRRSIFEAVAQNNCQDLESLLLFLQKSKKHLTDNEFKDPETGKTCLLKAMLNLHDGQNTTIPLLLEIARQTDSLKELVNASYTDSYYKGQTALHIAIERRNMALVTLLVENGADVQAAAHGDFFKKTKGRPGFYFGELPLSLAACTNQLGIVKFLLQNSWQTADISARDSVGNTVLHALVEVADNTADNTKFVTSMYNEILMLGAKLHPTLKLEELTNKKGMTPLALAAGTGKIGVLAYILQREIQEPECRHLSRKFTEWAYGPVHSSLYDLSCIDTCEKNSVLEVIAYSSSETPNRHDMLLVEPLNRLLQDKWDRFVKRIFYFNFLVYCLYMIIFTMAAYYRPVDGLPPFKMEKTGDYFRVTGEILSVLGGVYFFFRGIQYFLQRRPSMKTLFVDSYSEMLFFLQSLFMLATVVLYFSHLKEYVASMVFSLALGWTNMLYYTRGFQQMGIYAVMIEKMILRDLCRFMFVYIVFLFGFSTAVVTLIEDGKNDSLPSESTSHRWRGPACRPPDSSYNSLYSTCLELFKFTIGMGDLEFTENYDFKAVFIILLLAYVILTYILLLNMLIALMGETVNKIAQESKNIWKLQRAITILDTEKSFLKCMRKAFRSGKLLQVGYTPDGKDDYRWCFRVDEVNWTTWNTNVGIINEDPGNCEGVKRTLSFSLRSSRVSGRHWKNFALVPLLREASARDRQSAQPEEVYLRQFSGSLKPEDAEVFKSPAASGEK

Compound | body weight gain [1] | insulin sensitivity [2] | short term food intake [3] | gastric emptying [4] | EC50 [5] [µM] | EC50 [6] [µM] | EC50 [7] [µM] | activation of "empty" cells [8] | activation of hTRPM8 [9]
O=CC=Cc1ccccc1 [cinnamaldehyde] | gained less weight | improved insulin sensitivity | reduction in short term food intake | delayed gastric emptying | ~60 | – | – | – | –
COc1ccc(C=O)cc1 [p-anisaldehyde] | – | – | – | – | – | ~100 | ~500 | no activation was observed | no activation was observed
